These results are taken from US20230287316A1, “INTER-ORGAN PLATFORM WITH TISSUE-SPECIFIC NICHES FOR A MICROPHYSIOLOGICAL SYSTEM ON A CHIP” (THE TRUSTEES OF COLUMBIA UNIVERSITY IN THE CITY OF NEW YORK, priority 2020, published 2023).

As usually defined, the IC50 is the concentration that inhibits the measured activity by half.

Series [1] relates to non-metastatic RD-ES cell line. The series is described as follows: Linsitinib 12 µM on non-metastatic ES cell monolayers, luminescence viability. Format: cell-based, human. As to conditions: 12 µM over 72 hours. As for the experimental part:
(§1) MTT viability assay was used to determine drug toxicity, with luminescence generated by viable cells measured at the endpoint (10^4 cells per well, mean± s.e.m., n = 3). […] In order to determine cancer cell viability, cells were lysed and treated with luciferin using a Bright-Glo™ assay, with subsequent luminescence measured (10^4 cells per well, mean± s.e.m., n = 3).
(§2) Both culture media were supplemented with 10% FBS and 1 % penicillin/streptomycin.
(§3) Cell viability was analyzed using a previously established protocol.^59 Cancer cell viability was measured for GFP-Luciferase labelled cancer cells using ONE-Glo luciferase substrate that was prepared according to manufacturer’s protocol (Promega). Samples were collected following 3, 7, and 21 days cycles of linsitinib treatment. Where noted, longitudinal cell viability was also assessed using luminescence, though at the cost of signal strength. Briefly, in vivo grade VivoGlo™ Luciferin (Promega) was made at a 200x stock concentration (30 mg/ml) in water, added to sample culture media at a 1:200 dilution, and scanned using a spectrophotometer (Biotek). Some of the IC50 values were determined using cell viability data generated using an MTT assay (RealTime-Glo™ MT Cell Viability Assay, Promega) that were analyzed according to manufacturer’s protocol.

Series [2] deals with tumors engineered from non-metastatic OS cells. The series is described as follows: Linsitinib in bioengineered tumors from non-metastatic OS cells. It is filed as cell-based, human. The following applies: 12 µM, for 3 weeks. As for the experimental part: (§4) We tested the drug Linsitinib—a potent tyrosine kinase inhibitor targeting the IGF-1 receptor (IGF-1R) —in metastatic and non-metastatic OS models (FIG. 17C). The drug was administered (12 µM, for 3 weeks), as per an ongoing Phase II Eurosarc trial in patients with advanced Ewing sarcoma.

The test system of series [3] is metastatic TE-ES (SK-N-MC) bone tumor. Description: Linsitinib on metastatic engineered ES bone tumors (TE-ES) cultured in isolation. It is filed as cell-based, human. The following applies: 12 µM. How it is done:
FIGS. 32A-D show aspects of responses of human engineered bone ES tumors and cardiac tissues to linsitinib in isolated platform chambers. […] Luminescence as a function of cancer cell number and viability was measured (mean± s.e.m., n = 6 for day 3, and n = 3 for day 7 and 21).
Supernatants were collected from each individual sample across the duration of the drug treatments and were analyzed for osteoblast function (OCN, OPN) and for cytotoxicity (LDH) (mean± s.e.m., n = 3).
Two weeks following the initiation of osteogenic differentiation, aggregates of ES tumor cells were prepared as described previously, using 0.3 × 10^6 cells per aggregate. After 1 week of culture, corresponding to the end of bone tissue culture (3 weeks), the primary ES cell aggregates were placed into the engineered bone constructs (3 aggregates per construct, placed apart of each other). Tumor models were established for two different types of primary ES cells: non-metastatic (RD-ES) and metastatic (SK-N-MC). Tissue engineered RD-ES and SK-N-MC tumors were cultured in the RPMI and EMEM media, respectively, supplemented with 10% FBS and 1% penicillin/streptomycin. Bone constructs cultured without tumor cell aggregates (TE-bone) in RPMI and EMEM media were used as controls.
as §3
(§5) Osteocalcin (OCN), osteopontin (OPN), and lactic acid dehydrogenase (LDH) secreted levels were all measured using a similar approach. Supernatants were isolated from controls and drug treated TE-ES and equal amounts were used in each assay according to the manufacturer’s instructions. For OCN a Human Osteocalcin Quantikine^R ELISA (R&D Systems) was used, while for OPN it was a Human Osteopontin Quantikine^R ELISA (R&D Systems). LDH secretion was determined using a Lactate Dehydrogenase Assay Kit (Colorimetric; Abcam).

Series [4] relates to non-metastatic ES bone tumor tissues. The series is described as follows: Linsitinib on non-metastatic ES bone tumor in the integrated platform with microfluidic perfusion. Format: cell-based, human. As to conditions: 12 µM. As for the experimental part: as §3, §5
A further series relates to ES cell monolayers. The series is described as follows: Linsitinib dose response in ES cell monolayers (MTT and luminescence viability). Format: cell-based, human. The following applies: 0-100 µM over 72 hours. How it is done: as §1, §3
Series [5] has as its system tumors from metastatic cells. The series is described as follows: Linsitinib in bioengineered tumors from metastatic OS cells. Format: cell-based, human. The following applies: 12 µM, for 3 weeks. As for the experimental part: as §4
In a further series the target is T1, phosphorylated IGF-1R (Homo sapiens, UniProt P08069).
T1 construct: both RD-ES and SK-N-MC monolayers were treated with 12 µM linsitinib for 6 hours, lysed; endogenous in cells; host or cells: RD-ES (ATCC HTB-166) and SK-N-MC (ATCC HTB-10) Ewing sarcoma cell lines
T1 sequence (P08069 31-1367): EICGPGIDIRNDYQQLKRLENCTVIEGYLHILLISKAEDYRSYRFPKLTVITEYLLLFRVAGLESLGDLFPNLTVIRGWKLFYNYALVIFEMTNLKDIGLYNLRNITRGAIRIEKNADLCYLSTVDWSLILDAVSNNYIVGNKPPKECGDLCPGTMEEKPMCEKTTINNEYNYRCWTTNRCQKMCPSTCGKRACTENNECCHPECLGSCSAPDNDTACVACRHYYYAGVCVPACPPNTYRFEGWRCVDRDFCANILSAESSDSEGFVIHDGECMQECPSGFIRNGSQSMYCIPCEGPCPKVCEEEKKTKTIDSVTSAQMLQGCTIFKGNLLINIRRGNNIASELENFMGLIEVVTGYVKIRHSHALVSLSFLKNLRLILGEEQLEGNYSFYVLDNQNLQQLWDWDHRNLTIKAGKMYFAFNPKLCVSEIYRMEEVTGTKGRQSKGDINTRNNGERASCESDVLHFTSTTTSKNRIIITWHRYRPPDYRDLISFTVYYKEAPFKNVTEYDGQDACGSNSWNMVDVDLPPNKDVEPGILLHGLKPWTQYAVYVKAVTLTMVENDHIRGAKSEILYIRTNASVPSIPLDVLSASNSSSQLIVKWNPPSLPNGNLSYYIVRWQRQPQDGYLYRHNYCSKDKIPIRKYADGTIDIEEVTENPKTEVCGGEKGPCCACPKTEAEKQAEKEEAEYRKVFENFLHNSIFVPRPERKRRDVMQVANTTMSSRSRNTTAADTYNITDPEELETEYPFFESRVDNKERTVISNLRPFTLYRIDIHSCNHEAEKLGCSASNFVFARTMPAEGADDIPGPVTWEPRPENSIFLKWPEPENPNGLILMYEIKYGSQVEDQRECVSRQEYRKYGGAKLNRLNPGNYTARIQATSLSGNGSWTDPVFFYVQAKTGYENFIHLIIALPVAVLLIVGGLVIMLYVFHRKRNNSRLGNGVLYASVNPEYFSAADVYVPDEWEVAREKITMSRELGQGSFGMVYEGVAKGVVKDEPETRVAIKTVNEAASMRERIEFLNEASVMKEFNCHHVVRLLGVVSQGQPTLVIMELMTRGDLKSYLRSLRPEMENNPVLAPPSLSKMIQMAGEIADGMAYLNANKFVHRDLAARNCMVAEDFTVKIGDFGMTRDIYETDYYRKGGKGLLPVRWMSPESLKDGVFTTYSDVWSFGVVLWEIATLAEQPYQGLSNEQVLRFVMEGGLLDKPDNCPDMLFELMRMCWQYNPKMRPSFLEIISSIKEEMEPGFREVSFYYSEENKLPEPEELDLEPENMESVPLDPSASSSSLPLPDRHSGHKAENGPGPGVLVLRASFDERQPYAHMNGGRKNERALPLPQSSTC
The series is described as follows: Human Phospho-IGF1R ELISA in ES cell monolayers. Format: cell-based. The following applies: 12 µM for 6 hours, non-metastatic and metastatic ES cell lines.

Series [6] relates to metastatic SK-N-MC cell line. The series is described as follows: Linsitinib 12 µM on metastatic ES cell monolayers, luminescence viability. It is filed as cell-based, human. As to conditions: 12 µM over 72 hours. How it is done:
as §1, §2, §3

For series [7] the following is noted: cited from earlier work.
[8] abbreviates: clinical trials of other types of cancer.

As for `C[C@]1(O)C[C@@H](c2nc(-c3ccc4ccc(-c5ccccc5)nc4c3)c3c(N)nccn32)C1` [linsitinib], the “drug efficacy (luminescence viability)” value in series [1] and in series [6] was “significant drug efficacy” in each case. In addition, the tumor viability entry is recorded as “significant viability reduction” in [2] and “no effect” in series [5]. Moreover, the “LDH secretion (cytotoxicity)” value in series [3] (3-week regimen, supernatants) is reported as “spiked”. The Osteocalcin secretion result in [3] (3-week regimen, supernatants) is reported as “decreased”. In series [3] (21-day clinical treatment regimen), the “cancer cell population (luminescence)” value is listed as “decrease in drug efficacy, as the cancer cell population continued to expand over the 21-day treatment cycle”. Also, the “drug response (luminescence)” value in series [3] (after 3 days) was “significant drug response”; in series [4] (3 days, linsitinib into the reservoir), “insignificant drug response”. Moreover, the osteopontin secretion entry in [3] (throughout the 21 days) is listed as “decreased similar to osteocalcin”. Also, the “drug response (luminescence), immediate exposure” value in series [4] (3 days, directly into the TE-ES tissue chamber) is recorded as “fast response to the drug”. Moreover, the “drug response (luminescence), diffused exposure” value in series [4] (3 days, introduced into the circulation) is “no response”. Moreover, the “Secretion of LDH, vehicle vs linsitinib treated” value in [4] (72 hours) is recorded as “no significant difference”. In addition, the “IC50 (MTT viability assay)” value in the series with ES cell monolayers was “two orders of magnitude lower than the effective plasma concentration observed in patients”. Further, the IC50 in the series on ES cell monolayers (Homo sapiens, GFP-luciferase cells, read-out: IC50 (luminescence as a proxy for cell viability)) is approximately 12 µM. The “levels of phosphorylated IGF-1R” value on phosphorylated IGF-1R is on record as “significant decreases”. The “progression of ES in the clinical trial” value in series [7] (Phase II trial, patients with refractory or relapsed ES) is “unable to stop progression of ES”. In addition, the Cmax in [7] (blood plasma, patients, read-out: Cmax clinical concentration) was 12 µM. Besides, the atrial fibrillation in series [7] (setting [8]) was 3.75 - 5%. Further, in series [7] (setting [8]), the tachycardia was 3.75-5 % of patients. In [7] (known value), the half-life entry is reported as “approximately 5 hours”.
